Columns and labels:
Caspase-1 = target: T1, Caspase-1 (Mus musculus, UniProt P29452); experiment: Inhibitory activity against Caspase-1 using Ac-TyrValAlaAsp-amc as substrate
T1 sequence (P29452 whole entry): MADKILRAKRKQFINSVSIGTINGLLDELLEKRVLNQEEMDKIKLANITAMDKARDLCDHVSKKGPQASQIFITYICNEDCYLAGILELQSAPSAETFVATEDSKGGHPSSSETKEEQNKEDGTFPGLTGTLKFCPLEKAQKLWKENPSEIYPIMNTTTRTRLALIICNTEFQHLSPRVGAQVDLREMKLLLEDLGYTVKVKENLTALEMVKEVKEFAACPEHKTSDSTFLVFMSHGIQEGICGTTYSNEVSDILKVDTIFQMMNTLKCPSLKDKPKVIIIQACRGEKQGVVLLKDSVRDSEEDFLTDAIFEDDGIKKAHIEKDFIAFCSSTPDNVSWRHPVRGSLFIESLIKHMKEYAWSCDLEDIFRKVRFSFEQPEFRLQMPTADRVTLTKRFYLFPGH

Caspase-3 = target: T2, Caspase-3 (Homo sapiens, UniProt P42574); experiment: Inhibitory activity against human Caspase-3 using Ac-AspGluValAsp as substrate
T2 sequence (P42574 whole entry): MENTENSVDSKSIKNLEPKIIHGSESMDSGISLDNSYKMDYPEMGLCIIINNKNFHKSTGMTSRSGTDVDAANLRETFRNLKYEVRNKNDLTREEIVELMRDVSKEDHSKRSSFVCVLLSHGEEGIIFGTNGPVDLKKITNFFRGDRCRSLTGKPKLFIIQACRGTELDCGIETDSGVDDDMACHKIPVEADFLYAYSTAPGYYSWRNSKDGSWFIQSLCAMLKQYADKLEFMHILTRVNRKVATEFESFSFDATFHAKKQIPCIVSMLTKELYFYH

Structure (SMILES)	IC50 (Caspase-1) [nM]	IC50 (Caspase-3) [µM]
CC(=O)N[C@@H](CC(=O)O)C(=O)N[C@H](C(=O)N[C@@H](C)C(=O)N[C@H]1CC(=O)OC1O)C(C)C (stereo partly drawn)	523	–
CC(=O)N[C@@H](Cc1ccc(O)cc1)C(=O)N[C@H](C(=O)N[C@@H](C)C(=O)N[C@H]1CC(=O)OC1O)C(C)C (stereo partly drawn)	4.6	–
CC(C)[C@H](NC(=O)OCc1ccccc1)C(=O)N1CCC[C@H]1C(=O)N[C@H]1CC(=O)OC1O (stereo partly drawn)	87	–
CC(=O)N[C@@H](CC(=O)O)C(=O)N[C@H]1CCC[C@H]2SC[C@@H](C(=O)N[C@H]3CC(=O)OC3O)N2C1=O (stereo partly drawn)	10400	0.018
O=C1C[C@H](NC(=O)[C@@H]2CCC[C@@H]3CCC[C@H](NC(=O)OCc4ccccc4)C(=O)N32)C(O)O1 (stereo partly drawn)	36	> 10
CC(C)[C@H](NC(=O)OCc1ccccc1)C(=O)N1CCCC[C@H]1C(=O)N[C@H]1CC(=O)OC1O (stereo partly drawn)	95	–
CC(=O)N[C@@H](CC(=O)O)C(=O)N[C@@H](CCC(=O)O)C(=O)N[C@H](C(=O)N[C@H]1CC(=O)OC1O)C(C)C (stereo partly drawn)	71	0.0012
O=C(CN1CC[C@H](NC(=O)OCc2ccccc2)C1=O)N[C@H]1CC(=O)OC1O (stereo partly drawn)	> 10000	> 10
C[C@@H](C(=O)N[C@H]1CC(=O)OC1O)N1CC[C@H](NC(=O)OCc2ccccc2)C1=O (stereo partly drawn)	3700	> 100
O=C1C[C@H](NC(=O)[C@@H]2CS[C@@H]3CCC[C@H](NC(=O)OCc4ccccc4)C(=O)N32)C(O)O1 (stereo partly drawn)	159	> 10

The next lines start with the values.

IC50 (Caspase-1) [nM]	IC50 (Caspase-3) [µM]	Structure (SMILES)
186	> 10	C[C@@H](C(=O)N[C@H]1CC(=O)OC1O)N1CCCC[C@H](NC(=O)OCc2ccccc2)C1=O (stereo partly drawn)
64	–	CC(C)[C@H](NC(=O)OCc1ccccc1)C(=O)N[C@@H](C)C(=O)N[C@H]1CC(=O)OC1O (stereo partly drawn)
4800	–	O=C1C[C@H](NC(=O)[C@@H]2CS[C@H]3CC[C@H](NC(=O)OCc4ccccc4)C(=O)N32)C(O)O1 (stereo partly drawn)
1680	–	O=C(CN1CCCC[C@H](NC(=O)OCc2ccccc2)C1=O)N[C@H]1CC(=O)OC1O (stereo partly drawn)
37000	> 100	O=C(CN1CCC[C@H](NC(=O)OCc2ccccc2)C1=O)N[C@H]1CC(=O)OC1O (stereo partly drawn)

Reference: ChEMBL document CHEMBL1131550, “Conformationally constrained inhibitors of caspase-1 (interleukin-1 beta converting enzyme) and of the human CED-3 homologue caspase-3 (CPP32, apopain)” (Bioorg Med Chem Lett, 1998)
